Key:
serum total cholesterol = assay: Hypocholesterolemic activity in rabbits after p.o. administration; type: in vivo, male white New Zealand rabbits; conditions: for Serum total cholesterol, % change compared to control group: rabbit p.o., 5 mg/kg per day (constant)
Procedure: 4) Hypocholesterolemic activity in rabbits after p.o. administration
Normolipemic male white New Zealand rabbits, body weight 3-3.5 kg, were divided into groups of 5 animals. The groups in each case received one of the test compounds (sodium salts of the compounds of the formula II), suspended in 1% aqueous methylcellulose (®Tylose MH 300), 5.10 or 20 mg/kg/day daily in the morning by stomach tube. The animals of the control groups received only Tylose MH 300. Every 3-4 days samples of venous blood were taken from all animals 20 hours after the oral administration. The serum total cholesterol was determined enzymatically in these samples using the test combination of Boehringer Mannheim (CHOD-PAP high performance method). The serum cholesterol level of the treated animals was compared with that of the control groups. A "discharge phase" followed the 20-day "treatment phase", in which the change in the serum cholesterol level was further monitored.

HMG-CoA reductase = biological target: T1, HMG-CoA reductase (Rattus norvegicus, UniProt P51639); assay: Inhibition of HMG-CoA reductase activity in solubilized enzyme preparations from rat liver microsomes; type: biochemical; conditions: sodium salts of the dihydroxycarboxylic acids; mean of 3 parallel samples; read-out: IC50 (molar concentration necessary for a 50% inhibition)
T1 construct: solubilized enzyme preparations from liver microsomes of rats; from tissue; host or cells: rat liver microsomes (cholestyramine-induced rats), solubilized
T1 sequence (P51639 1-887): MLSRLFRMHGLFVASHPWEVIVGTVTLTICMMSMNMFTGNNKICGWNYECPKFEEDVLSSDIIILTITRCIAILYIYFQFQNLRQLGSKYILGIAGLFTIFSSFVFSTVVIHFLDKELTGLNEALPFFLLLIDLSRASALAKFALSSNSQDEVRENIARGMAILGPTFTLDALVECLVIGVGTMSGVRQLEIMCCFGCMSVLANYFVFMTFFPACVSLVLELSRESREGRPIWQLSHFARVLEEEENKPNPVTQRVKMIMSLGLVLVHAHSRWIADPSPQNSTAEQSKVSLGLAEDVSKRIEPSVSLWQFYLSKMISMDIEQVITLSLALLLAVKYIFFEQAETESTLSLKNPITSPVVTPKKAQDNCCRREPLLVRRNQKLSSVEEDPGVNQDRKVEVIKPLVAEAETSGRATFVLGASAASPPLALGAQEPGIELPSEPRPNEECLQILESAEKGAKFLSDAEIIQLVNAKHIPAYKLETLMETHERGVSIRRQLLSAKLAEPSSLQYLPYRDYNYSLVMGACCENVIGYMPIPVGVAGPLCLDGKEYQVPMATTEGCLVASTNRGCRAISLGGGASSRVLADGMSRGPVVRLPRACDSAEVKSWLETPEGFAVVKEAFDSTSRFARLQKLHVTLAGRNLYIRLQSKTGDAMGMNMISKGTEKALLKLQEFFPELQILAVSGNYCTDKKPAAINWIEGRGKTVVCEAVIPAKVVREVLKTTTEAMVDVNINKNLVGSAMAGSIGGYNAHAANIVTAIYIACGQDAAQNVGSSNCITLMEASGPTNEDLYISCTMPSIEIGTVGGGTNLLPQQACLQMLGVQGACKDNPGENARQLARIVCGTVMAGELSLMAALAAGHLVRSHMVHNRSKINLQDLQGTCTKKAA
Procedure: 1) Inhibition of HKG-CoA reductase activity in solubilized enzyme preparations from rat liver microsomes
HMG-CoA reductase activity was measured on solubilized enzyme preparations from liver microsomes of rats which had been induced by conversion into the day/night rhythm using cholestyramine (®Cuemid). (S,R)^14 C-HMG-CoA was used as a substrate, and the concentration of NADPH was maintained during the incubation by a regenerating system. The separation of ^14 C-mevalonate from substrate and other products (for example ^14 C-HMG) was carried out by column elution, the elution profile of each individual sample being determined. The regular addition of ^3 H-mevalonate was avoided as the determination gives the data relative to the inhibitory action. The enzyme-free control, the enzyme-containing normal mixture (=100%) and those containing preparation additives were in each case treated together in one series of experiments. The sodium salts of the dihydroxycarboxylic acids of the formula II were always employed as the preparation in this test. Each individual value was formed as the mean value of 3 parallel samples. The significance of the mean value differences between preparation-free and preparation-containing samples was evaluated by the t-test.

HEP G2 cells = assay: Inhibition of cholesterol biosynthesis in cell cultures (HEP G2 cells), incorporation of 14C-sodium acetate in cholesterol; type: cell-based; conditions: for IC50 / IC70: Homo sapiens, HepG2, sodium salts, test compounds corrected by deviation of mevinolin sodium from its mean value; for IC50: read-out: IC50 (concentration necessary for a 50% inhibition); for IC70: read-out: IC70 (concentration necessary for a 70% inhibition); for Relative potency in % / Relative potency in % (value in parentheses): mevinolin sodium = 100; for Relative potency in %: from IC50; for Relative potency in % (value in parentheses): corresponds to IC70
Procedure: 2) Inhibition of cholesterol biosynthesis in cell cultures (EEP G2 cells)
Determination of the inhibition of the incorporation of ^14 C-sodium acetate in cholesterol
Monolayers of HEP G2 cells in lipoprotein-free medium were preincubated with various concentrations of the sodium salts of the dihydroxycarboxylic acids of the formula II for 1 hour. After adding ^14 C-labeled sodium acetate, the incubation was continued for 3 hours. Tritium-labeled cholesterol was added as an internal standard and an aliquot of the cells was subjected to alkaline hydrolysis. The lipids were extracted using chloroform/methanol 2: 1. After adding carrier cholesterol, the lipid mixture was preparatively separated on TLC plates using chloroform/acetone 9: 1. The cholesterol zone was made visible by staining with iodine vapor, additionally detected using a TLC radio scanner and then scraped off. The amount of ^14 C-cholesterol formed was determined scintigraphically and related to mg of cell protein. The same procedure was carried out with cells from the Bame culture without preincubation with a test compound (so-called "solvent control"). The potency of the test compounds was determined by comparison of the biosynthesized ^14 C-cholesterol in test runs and in "solvent control".

LDL [1] = assay: Inhibition of Cu2+-catalyzed LDL oxidation in vitro; type: biochemical, porcine; conditions: 5 μM Cu2+, 2 hours at 37° C.; for IC50: fluorescence 430 nm, read-out: IC50 (50% inhibition of LDL oxidation)
Procedure: 6) Inhibition of Cu^2+ -catalyzed LDL oxidation in vitro LDL was isolated from porcine plasma which contained EDTA (1 mg/ml) by ultracentrifugation in salt solutions of NaCl/NaBr between the densities 1.019 and 1.063 g/ml (cf. R. J. Havel et al., J. Clin. Invest. 43, 1345 (1955)). LDL was then dialyzed against phosphate-buffered saline (160 mM NaCl, 10 mM NaH2 PO4), pH 7.4 and stored under nitrogen at 4° C. Before the oxidation process, the LDL fractions were diluted to a final protein concentration of 0.1 mg/ml using phosphate-buffered saline and 2.5 ml aliquot parts were pre-incubated under nitrogen with the test compounds (25 μl of ethanolic solution) for 1 hour at 37° C. (cf. McLean et al., Biochemistry 1989, 28, 321). For the Cu^2+ -catalyzed oxidation of LDL, 12.5 μl of a 1 mM CuSO4 solution were added to each sample, a 5 μM Cu^2+ concentration resulting. The incubation was carried out for 2 hours at 37° C. and in an air atmosphere. The fluorescence intensity was measured at 430 nm (excitation wavelength 365 nm) (cf. Steinbrecher, U. P., J. Biol. Chem. 1987, 262, 3603). […] In addition, the inhibition using a 10^-5 N concentration of the test compound is indicated in %.

[2] = system: microsomal lipid peroxidation; assay: Inhibition of microsomal lipid peroxidation (in vitro); type: biochemical; conditions: 10^-5 mol/l
Procedure: 5) Inhibition of microsomal lipid peroxidation (in vitro)
The inhibition of lipid peroxidation was measured under the experimental conditions described by H. Wafers and H. Sies, Eur. J. Biochem. 174, 353-357 (1988). The microsomes were obtained according to the literature cited therein. IC50 denotes the concentration of the test compound in moles per liter which causes a 50% inhibition of lipid peroxidation.

LDL [3] = conditions: cited from earlier work
serum lipoproteins = assay: Action on serum lipoproteins and other metabolic parameters of male rats in the subchronic test; type: in vivo; conditions: rat
Procedure: 3) Action on serum lipoproteins and other metabolic parameters of male rats in the subchronic test
Groups of male rats of the strain HOE: WISKf (SPF 71) having a starting weight of above 180 g received the test preparations daily in the morning (sodium salts of the dihydroxycarboxylic acids of the formula II) in polyethylene glycol 400 by stomach tube; the respective control group received only the vehicle. The last (7th) administration was carried out 24 hours before taking blood and sacrificing. There was free access to food and water during the experiment. 24 hours before taking blood, which wall carried out retroorbitally under slight ether anesthesia before and after the treatment period (i.e. on the 1st and 8th day), the food was withdrawn. Total cholesterol was determined in the serum of each individual animal [CHODPAP high performance method of Boehringer Mannheim], and, as a measure of the triglycerides, total glycerol was also determined analytically from the serum pool of all the animals of one group [GPO-PAP high performance method, Boehringer Mannheim].
Immediately after taking blood, the animals were sacrificed by dislocation of the spine, and the relative liver weight, the change in body weight and the food consumption were determined.
For the analysis of the serum lipoproteins, the serum of all the rats of one group was pooled. The serum lipoproteins were separated using the preparative ultracentrifuge.
The following conditions were used for the separation of the fractions VLDL, LDL and HDL:
The determination of the protein was carried out by the method of Lowry et al. [LOWRY O. H., ROSEBOROUGH, N.J., PARR, A. L. and RANDELL, R. J.: J. Biol. Chem. 193, 265 (1951)].

[4] = 30 mg/kg daily by stomach tube, 7 administrations

Structure (SMILES) | Serum total cholesterol, % change compared to control group (serum total cholesterol; administration 3) | Serum total cholesterol, % change compared to control group (serum total cholesterol; administration 10) | Serum total cholesterol, % change compared to control group (serum total cholesterol; administration 14) | Serum total cholesterol, % change compared to control group (serum total cholesterol; discharge phase 3) | Serum total cholesterol, % change compared to control group (serum total cholesterol; discharge phase 6) | Serum total cholesterol, % change compared to control group (serum total cholesterol; discharge phase 11) | IC50 (HMG-CoA reductase) | IC50 (HEP G2 cells) | IC70 (HEP G2 cells) | Relative potency in % (HEP G2 cells) | Relative potency in % (value in parentheses) (HEP G2 cells) | IC50 (LDL [1]) | Inhibition at 10^-5 mol/l [2] | also measured
CC(C)c1cc(Sc2ccc(F)cc2)cc(-c2ccc(F)cc2)c1OC[C@@H](O)C[C@@H](O)CC(=O)O [Example 1] | -44% | -46% | -43% | -22% | -17% | -6% | 6 nM | 4.3 nM | ~0.8 nM | 1163% | 18750% | > 10000 nM | < 10% | onset of action / maximum action (serum total cholesterol; Table 4): commences very early on. The maximum action was virtually achieved even in the first measurement after 3 days of treatment; plasma cholesterol decrease compared with mevinolin and compound C (serum total cholesterol; Table 4, lower dosage): substantially greater plasma cholesterol decrease than mevinolin or the compound C in spite of lower dosage; Serum total cholesterol, % change compared to control group (serum total cholesterol; administration 17): -42%; Serum total cholesterol, % change compared to control group (serum total cholesterol; administration 20): -48%; Inhibition at 10^-5 M (LDL [1]; 10^-5 M): 41%
CC(C)c1c(OC[C@@H](O)C[C@@H](O)CC(=O)O)c(C(C)C)c(C(C)C)c(O)c1-c1ccc(F)cc1 [Example 9] | -8% | -12% | -15% | -4% | -4% | +6% | 4 nM | 7.5 nM | 12 nM | 667% | 1250% | 6000 nM | < 10% | 
CC(C)(Sc1cc(C(C)(C)C)c(O)c(C(C)(C)C)c1)Sc1cc(C(C)(C)C)c(O)c(C(C)(C)C)c1 [probucol, reference compound] |  |  |  |  |  |  |  |  |  |  |  | 500 nM |  | oxidative modification of LDL in vivo (LDL [3]): prevents oxidative modification of LDL; biliary cholesterol excretion (LDL [3]; in vivo): increases biliary cholesterol excretion; lowering of LDL and HDL (LDL [3]; in vivo): lowers both LDL and HDL; plasma cholesterol-lowering action compared with a potent cholesterol biosynthesis inhibitor (such as mevinolin) (LDL [3]; in vivo): only poorly pronounced; rate of catabolism of LDL (LDL [3]; in vivo): increases the rate of catabolism of LDL; Body weight, % changes in the mean value relative to starting (serum lipoproteins; [4]): +5%; Glycerol VLDL, % change compared to control (serum lipoproteins; [4]): +24%; Liver weight, % changes in the mean value relative to control (serum lipoproteins; [4]): +5%; Protein LDL, % change compared to control (serum lipoproteins; [4]): -23%; Protein VLDL, % change compared to control (serum lipoproteins; [4]): -6%; Total cholesterol HDL, % change compared to control (serum lipoproteins; [4]): -11%; Total cholesterol LDL, % change compared to control (serum lipoproteins; [4]): -24%; Total cholesterol VLDL, % change compared to control (serum lipoproteins; [4]): +4%; Cholesterol HDL/LDL (serum lipoproteins; 30 mg/kg daily, control standardization to 1.00): 0.97
